Source: the NIST ThermoML archive (doi:10.1021/je301164d)

Settings: Fluid (supercritical or subcritical phases)

CC(F)(F)CC(F)(F)F [1,1,1,3,3-pentafluorobutane]
Settings | speed of sound [m/s]
320 K, 60148 kPa | 963.25
320 K, 70155 kPa | 1000.1
320 K, 80162 kPa | 1034.6
320 K, 90169 kPa | 1067.1
320 K, 100176 kPa | 1098
320.01 K, 1103.1 kPa | 652.28
340 K, 1105.8 kPa | 578.15
340 K, 2106.4 kPa | 587.65
340 K, 3107 kPa | 596.83
340 K, 4107.5 kPa | 605.73
340 K, 5108.1 kPa | 614.36
340 K, 6109.1 kPa | 622.75
340 K, 7109.7 kPa | 630.92
340 K, 8108.9 kPa | 638.86
340 K, 9109.4 kPa | 646.62
340 K, 10110 kPa | 654.2
340 K, 12611 kPa | 672.43
340 K, 15113 kPa | 689.74
340 K, 17614 kPa | 706.24
340 K, 20116 kPa | 722.03
340 K, 25119 kPa | 751.78
340 K, 30122 kPa | 779.47
340 K, 35124 kPa | 805.42
340 K, 40128 kPa | 829.93
340 K, 45131 kPa | 853.19
340 K, 50135 kPa | 875.34
340 K, 60142 kPa | 916.86
340 K, 70150 kPa | 955.26
340 K, 80157 kPa | 991.12
340 K, 90164 kPa | 1024.8
340 K, 100171 kPa | 1056.7
360 K, 1102.1 kPa | 503.74
360 K, 2102.7 kPa | 515.2
360 K, 3103.3 kPa | 526.14
360 K, 4104 kPa | 536.64
360 K, 5104.8 kPa | 546.73
360 K, 6106.2 kPa | 556.45
360 K, 7106.9 kPa | 565.84
360 K, 8107.7 kPa | 574.94
360 K, 9108.4 kPa | 583.75
360 K, 10109 kPa | 592.32
360 K, 12611 kPa | 612.74
360 K, 15113 kPa | 631.92
360 K, 17615 kPa | 650.07
360 K, 20117 kPa | 667.31
360 K, 25120 kPa | 699.5
360 K, 30124 kPa | 729.19
360 K, 35127 kPa | 756.83
360 K, 40130 kPa | 782.78
360 K, 45134 kPa | 807.28
360 K, 50137 kPa | 830.52
360 K, 60144 kPa | 873.89
360 K, 70151 kPa | 913.8
360 K, 80158 kPa | 950.91
360 K, 90165 kPa | 985.68
360 K, 100172 kPa | 1018.5
379.99 K, 1100.8 kPa | 427.28
379.99 K, 2101.7 kPa | 441.66
379.99 K, 3102.1 kPa | 455.12
379.99 K, 4102.7 kPa | 467.8
379.99 K, 5103.4 kPa | 479.82
379.99 K, 6104.7 kPa | 491.27
379.99 K, 7105.5 kPa | 502.21
379.99 K, 8106.3 kPa | 512.71
379.99 K, 9107.5 kPa | 522.81
379.99 K, 10108 kPa | 532.54
379.99 K, 12610 kPa | 555.5
379.99 K, 15112 kPa | 576.81
379.99 K, 17614 kPa | 596.76
379.99 K, 20116 kPa | 615.56
379.99 K, 25119 kPa | 650.34
379.99 K, 30123 kPa | 682.08
379.99 K, 35126 kPa | 711.42
379.99 K, 40130 kPa | 738.79
379.99 K, 45134 kPa | 764.51
379.99 K, 50137 kPa | 788.83
379.99 K, 60144 kPa | 833.97
379.99 K, 70151 kPa | 875.31
379.99 K, 80158 kPa | 913.6
379.99 K, 90166 kPa | 949.39
379.99 K, 100173 kPa | 983.05
400 K, 1605.2 kPa | 355.52
400 K, 2105.7 kPa | 364.94
400 K, 3106.4 kPa | 382.38
400 K, 4107.2 kPa | 398.31
400 K, 5108.1 kPa | 413.05
400 K, 6107.8 kPa | 426.8
400 K, 7108.6 kPa | 439.76
400 K, 8109.4 kPa | 452.03
400 K, 9110.2 kPa | 463.7
400 K, 10111 kPa | 474.85
400 K, 12613 kPa | 500.78
400 K, 15114 kPa | 524.48
400 K, 17616 kPa | 546.39
400 K, 20118 kPa | 566.86
400 K, 25122 kPa | 604.31
400 K, 30125 kPa | 638.14
400 K, 35128 kPa | 669.16
400 K, 40132 kPa | 697.92
400 K, 45135 kPa | 724.83
400 K, 50138 kPa | 750.16
400 K, 60145 kPa | 796.98
400 K, 70152 kPa | 839.66
400 K, 80159 kPa | 879.05
400 K, 90166 kPa | 915.76
400 K, 100174 kPa | 950.23
419.99 K, 2103.3 kPa | 280.02
419.99 K, 3102.8 kPa | 305.08
419.99 K, 4103.6 kPa | 326.49
419.99 K, 5104.3 kPa | 345.41
419.99 K, 6105 kPa | 362.51
419.99 K, 7105.6 kPa | 378.2
419.99 K, 8106.4 kPa | 392.76
419.99 K, 9107.1 kPa | 406.4
419.99 K, 10108 kPa | 419.26
